{"source": "paper PMC3288537", "about": "(ACS Chemical Biology, 2011)", "molecular_target": "T1, HePTP (Homo sapiens, UniProt P35236)", "T1 sequence (P35236 1-360)": "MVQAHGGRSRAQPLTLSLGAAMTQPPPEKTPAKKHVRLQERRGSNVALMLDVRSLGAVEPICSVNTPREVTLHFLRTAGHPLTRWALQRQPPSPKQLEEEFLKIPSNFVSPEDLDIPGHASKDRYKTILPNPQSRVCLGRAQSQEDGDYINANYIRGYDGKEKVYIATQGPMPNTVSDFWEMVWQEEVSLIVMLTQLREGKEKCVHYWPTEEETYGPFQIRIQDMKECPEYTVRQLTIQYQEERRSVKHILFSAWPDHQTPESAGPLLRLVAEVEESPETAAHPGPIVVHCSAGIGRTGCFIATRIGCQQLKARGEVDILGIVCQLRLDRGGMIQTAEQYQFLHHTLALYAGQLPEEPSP", "assay": "Dose-response OMFP phosphatase assay, HePTP", "type": "biochemical", "conditions": "OMFP substrate", "data": [{"smiles": "O=C(O)c1ccccc1", "note": "[benzoic acid, reference compound]", "values": [{"measurement": "activity against HePTP (in words)", "result": "did not inhibit"}]}]}
